Source: patent US6770287B1, “Biocidal cellulosic material” (The Regents of the University of California, priority 2000, dated 2004)

Test system: S. aureus
Assay: AATCC Test Method 100 quantitative antibacterial test (bacterial reduction)
Assay type: cell-based, Staphylococcu aureus (ATCC 5368)
Conditions: contact time 60 min
Description: AATCC Test Method 100 was adopted in this study. According to this test method, four pieces of staked circular fabric swatches 4.8±0.1 (about one grams) were inoculated with 1.0±0.1 milliliter of inoculum in a 250 milliliter jar. The inoculum was a nutrient broth culture containing over 1.0×10^6 clone forming units (CFU) of organisms. After the swatches were inoculated, they were neutralized by 100 milliliter of a 0.02% sodium thiosulfate solution in the jar. The contact time was the time between inoculation and neutralization. The jar was vigorously shaken and the neutralized solution was diluted in serial. The dilutions, usually 100, 101, and 102, were plated on nutrient agar and incubated for 18-24 hours at 37° C. The number of bacteria recovered from the inoculated finished fabrics was counted and compared with that from untreated fabrics. Six log reduction means the total inactivation of bacteria, and one log reduction means that finished fabrics reduced bacteria counts from 106 CFU to 105 CFU.
Finished fabrics prepared from solutions containing 1%-6% of monomethylol-5,5-dimethylhydantoin following the protocol set forth in Example 1 with pickup rates below 1% have been tested.
Fabrics finished in accordance with the protocol set forth in Example II with Anti-2, i.e., 1,3-dimethylol-5,5-dimethylhydantoin, were also tested with AATCC test method 100, which was briefly described in Example IV. In the tests, a diluted CLOROX® solution containing 0.01 % active chlorine was used to chlorinate the finished fabrics.

CC1(C)C(=O)N(CO)C(=O)N1CO [Anti-2, 1,3-dimethylol-5,5-dimethylhydantoin]
6 log: Durable Antibacterial Properties After fifteen washes S. aur. (Anti-2 2%, #400) | Durable Antibacterial Properties After five washes S. aur. (Anti-2 2%, #400) | Durable Antibacterial Properties After ten washes S. aur. (Anti-2 2%, #400) | Durable Antibacterial Properties After twenty washes S. aur. (Anti-2 2%, #400) | Durable Antibacterial Properties After twenty washes S. aur. (Anti-2 2%, #400, last column pair) | Durable Antibacterial Properties After fifteen washes S. aur. (Anti-2 2%, #7409) | Durable Antibacterial Properties After five washes S. aur. (Anti-2 2%, #7409) | Durable Antibacterial Properties After ten washes S. aur. (Anti-2 2%, #7409) | Durable Antibacterial Properties After twenty washes S. aur. (Anti-2 2%, #7409) | Durable Antibacterial Properties After twenty washes S. aur. (Anti-2 2%, #7409, last column pair) | Durable Antibacterial Properties After fifteen washes S. aur. (Anti-2 6%, #400) | Durable Antibacterial Properties After five washes S. aur. (Anti-2 6%, #400) | Durable Antibacterial Properties After ten washes S. aur. (Anti-2 6%, #400) | Durable Antibacterial Properties After twenty washes S. aur. (Anti-2 6%, #400) | Durable Antibacterial Properties After twenty washes S. aur. (Anti-2 6%, #400, last column pair) | Durable Antibacterial Properties After fifteen washes S. aur. (Anti-2 6%, #7409) | Durable Antibacterial Properties After five washes S. aur. (Anti-2 6%, #7409) | Durable Antibacterial Properties After ten washes S. aur. (Anti-2 6%, #7409) | Durable Antibacterial Properties After twenty washes S. aur. (Anti-2 6%, #7409) | Durable Antibacterial Properties After twenty washes S. aur. (Anti-2 6%, #7409, last column pair) | Durable Antibacterial Properties After fifteen washes S. aur. (Anti-2 10%, #400) | Durable Antibacterial Properties After five washes S. aur. (Anti-2 10%, #400) | Durable Antibacterial Properties After ten washes S. aur. (Anti-2 10%, #400) | Durable Antibacterial Properties After twenty washes S. aur. (Anti-2 10%, #400) | Durable Antibacterial Properties After twenty washes S. aur. (Anti-2 10%, #400, last column pair) | Durable Antibacterial Properties After fifteen washes S. aur. (Anti-2 10%, #7409) | Durable Antibacterial Properties After five washes S. aur. (Anti-2 10%, #7409) | Durable Antibacterial Properties After ten washes S. aur. (Anti-2 10%, #7409) | Durable Antibacterial Properties After twenty washes S. aur. (Anti-2 10%, #7409) | Durable Antibacterial Properties After twenty washes S. aur. (Anti-2 10%, #7409, last column pair)
